The text below walks through data of patent US5700682A, “Mechanism based screen for retinoid X receptor agonists and antagonists” (American Cyanamid Company, priority 1995, dated 1997).

SMILES strings stand for the structures.

One assay concerns the target T1, RXRα (Homo sapiens, UniProt P19793).
T1 construct: reporter YRpA: two apoAI site A copies-CYC1-lacZ
T1 sequence (P19793 1-462): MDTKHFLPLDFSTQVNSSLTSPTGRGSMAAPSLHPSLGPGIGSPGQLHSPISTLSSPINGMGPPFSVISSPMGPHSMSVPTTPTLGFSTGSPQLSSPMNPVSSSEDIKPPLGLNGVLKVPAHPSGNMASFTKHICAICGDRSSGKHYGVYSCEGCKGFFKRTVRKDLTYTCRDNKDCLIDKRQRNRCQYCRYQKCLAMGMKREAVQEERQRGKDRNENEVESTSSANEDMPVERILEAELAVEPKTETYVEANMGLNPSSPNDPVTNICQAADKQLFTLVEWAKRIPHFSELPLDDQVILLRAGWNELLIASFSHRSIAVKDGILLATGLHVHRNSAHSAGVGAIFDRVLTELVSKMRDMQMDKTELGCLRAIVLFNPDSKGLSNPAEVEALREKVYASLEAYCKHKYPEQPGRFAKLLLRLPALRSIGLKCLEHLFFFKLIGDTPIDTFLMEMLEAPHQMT
The experiment in a line: Plate assay (X-GAL, blue halo) as a screen to detect RXRα agonists. The assay is classed as cell-based. As to conditions: discs containing hormone on agar plate with X-GAL; FIG. 7. An excerpt: Yeast cells containing the RXRα expression plasmid and the reporter construct are inoculated in Yeast media containing the chromogenic substrate, X-GAL® (a registered trademark of 5-bromo-4-chloro-3-indolyl-β-D-galactopyranoside, commercially available from Gibco BRL, Bethesda, Md.).
To identify nontoxic ligands of RXRα, the present invention includes a novel screen for detecting compounds having retinoid X receptor agonist or antagonist activity by the following steps: (1) Providing a yeast strain which expresses the […] and activates the reporter plasmid containing apoAI gene site A or a mutated variant thereof; (2) incubating the compound in suitable media and a colorless chromogenic substrate; and (3) examining the media for development of color. FIG. 7 illustrates the screen as a plate assay which detects RXRα agonists. Yeast cells containing the RXRα expression plasmid and the reporter construct are inoculated in yeast media containing the chromogenic substrate, X-GAL® (a registered trademark of 5-bromo-4-chloro-3-indolyl-β-D-galactopyranoside, commercially available from Gibco BRL, Bethesda, Md.). Other well-known chromogenic substrates may substitute for X-GAL®. Then, discs containing different test compounds may be placed on top of the agar plate. Induction of the reporter enzyme by the ligands of RXRα is reflected by the formation of a color.
Regarding `CC(C)(O)CC[C@@H](O)[C@](C)(O)[C@H]1CC[C@@]2(O)C3=CC(=O)[C@@H]4C[C@@H](O)[C@@H](O)C[C@]4(C)[C@H]3CC[C@]12C` [20-hydroxyecdysone], the “Induction of the reporter enzyme as reflected by formation of the blue halo” value (“Induction of the reporter enzyme” for short) is “observed for 9-cis retinoic acid and all-trans-retinoic acids only”.

As for `CC(=O)[C@H]1CC[C@H]2[C@@H]3CCC4=CC(=O)CC[C@]4(C)[C@H]3CC[C@]12C` [progesterone], the “Induction of the reporter enzyme” value was “observed for 9-cis retinoic acid and all-trans-retinoic acids only”. As for `C[C@]12CCC(=O)C=C1CC[C@@H]1[C@@H]2C(=O)C[C@@]2(C)[C@H]1CC[C@]2(O)C(=O)CO` [cortisone], the “Induction of the reporter enzyme” value was “observed for 9-cis retinoic acid and all-trans-retinoic acids only”.

With `C[C@]12CC[C@H]3[C@@H](CCC4=CC(=O)CC[C@@]43C)[C@@H]1CC[C@@H]2O` [testosterone], the “Induction of the reporter enzyme” value was “observed for 9-cis retinoic acid and all-trans-retinoic acids only”.

The test system of a further assay is RXRα binding to the apoAI gene site A.
Assay: not given
As to conditions: reticulocyte lysates; cited from earlier work.
With `CC1=C(/C=C/C(C)=C\C=C\C(C)=C\C(=O)O)C(C)(C)CCC1` [9-cis-RA, 9-cis-retinoic acid], the “Binding of in vitro translated RXRα to apoAI gene site A on supplementing lysates with ligand” value is “does not bind to the apoAI gene site A unless these lysates are supplemented”.

As for `CC1=C(/C=C/C(C)=C/C=C/C(C)=C/C(=O)O)C(C)(C)CCC1` [all-trans-RA, all-trans-retinoic acid], the “Binding of in vitro translated RXRα to apoAI gene site A on supplementing lysates with ligand” value was “to the lesser extent”.
